Results from patent US20230201124A1, “LUBRICANT FOR PHARMACEUTICALS AND NUTRACEUTICALS” (JRS Pharma GmbH & Co. KG, priority 2021, published 2023).

Legend:
[1] = Tablet hardness versus compression force of lubricated tablets; type: physicochemical; details: for direction of change in tablet hardness: Example 8: lowest level/shortest blend time versus highest level/longest blend time
Procedure: Blends consisting of five separate levels of each lubricant type were prepared, with the lubricant blending time set for up to 60 minutes. After the addition of lubricant to the ibuprofen-MCC premix and the initiation of blending, a portion of each blend (enough to make a representative number of tablets) was withdrawn at each of 5 intervals (5, 15, 30, 45 and 60 minutes). […]
Tablet hardnesses and ejection forces were measure for each variant.

[2] = Lubricant-API stability of 1:1 aspirin-lubricant blends by NIR spectra; type: physicochemical; details: all tested storage conditions, 2 months
Source text: Example 9 is a study which examined the lubricant-API stability of rice bran wax, in comparison with magnesium stearate. Aspirin was chosen as a model API for the study. Magnesium stearate is known to interact unfavorably with aspirin. Aspirin also has a known tendency to convert to salicylic acid in the presence of moisture.
Aspirin and lubricant were ground together at a 1:1 ratio by weight with a glass mortar and pestle, then portioned into three vials which were labeled for room temperature (ambient) storage or for storage closed or open in a stability chamber at 40° C. and 75% RH. Near-IR (NIR) spectra were obtained periodically over two months of storage under these three different conditions.
FIG. 22 is an NIR spectra of the study components of Example 9, and provides the following depictions: aspirin (close dash), magnesium stearate (far dash), rice bran wax (solid) and salicylic acid (dotted). Near IR spectra were obtained on a Metrohm 6500 RCA (Rapid Content Analyzer) reflectance NIR (JRS #1219) and a standard normal variate (SNV) pre-processing routine was used to normalize the spectra for comparison.

[3] = Example 8: lowest level/shortest blend time versus highest level/longest blend time (1.0%, 60 min), at each compression force

| Compound | direction of change in tablet hardness [1] | drop in tablet hardness [1, 3] | tablet hardness ([1]; Example 8: 1% lubricant, 60 minute blend, FIG. 18) | drop in tablet hardness ([1]; Example 8: 15 kN compaction force, 0.125%/5 min versus 1.0%/60 min, FIG. 19) | tablet hardness ([1]; Example 8: highest lubricant level (1.0%), 5 minute blend, FIG. 17) | interaction between lubricant and aspirin [2] |
| --- | --- | --- | --- | --- | --- | --- |
| CCCCCCCCCCCCCCCCCCOC(=O)/C=C/C(=O)[O-].[Na+] [Pruv®, sodium stearyl fumarate] | drop in tablet hardness | < 3 N |  |  |  |  |
| magnesium stearate | drop in tablet hardness | 11-20 N | softest tablets | ~16 N | lower tablet hardness values than sodium stearyl fumarate and hydrogenated vegetable oil | interacts with aspirin |
